Among the data in PubChem BioAssay (NCI) are GI50 and TGI values, retold here.

What all share (test): NCI-60 cell line screen, 48 h
In assay [1] the test system is BT-549 breast.
In assay [2] the test system is DMS 114 small cell lung.
Assay [3] concerns DMS 273 small cell lung.
The subject of assay [4] is M19-MEL melanoma.
Assay [5] deals with SNB-78 CNS.
Assay [6] has as its system XF 498 CNS.
For assay [7], the system named is LXFL 529 NSCLC.
Assay [8] has as its system MDA-N.

“And” between values parts separate entries of the source, which are not always exact repeats. Equal values may be shown once.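 1) Cells in 96-well plates. 2) Compound, 48 h, 5 concentrations. 3) Linear interpolation between surrounding doses. 4) Unreached endpoint = highest concentration. GI50 is the concentration that inhibits growth by half. TGI denotes the concentration required for complete inhibition of growth.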

Take `Cc1cc(C(C#N)c2ccc(Cl)cc2)c(Cl)cc1NC(=O)c1cc(I)cc(I)c1O` (stereo unspecified): in assay [1], the GI50 was 4.03 µM and 8.64 µM; the TGI is 11.8 µM and 23.4 µM.

On to `CCC12CCCC(=O)N1C(CO)C(c1ccccc1)O2` (stereo unspecified), for which the TGI in assay [2], in assay [3], in assay [4], in assay [5] and in assay [6] was over 100 µM in each case.

In the case of `CCOc1ccc(NCc2cc(OC)c(OC)c(OC)c2)cc1`, the TGI in assay [1] is over 100 µM; in assay [2] it was 3.17 µM and 20 µM; in assay [3] it was over 100 µM; in assay [7], over 100 µM; in assay [8], over 100 µM; in assay [5], over 100 µM. Also, the TGI in assay [6] is > 95.6 µM and 62 µM. In addition, the GI50 in assay [3] is 0.296 µM and 0.821 µM; in assay [7], 0.839 µM and 2.67 µM; in assay [8], 0.565 µM and 0.446 µM; in assay [6], 9.37 µM and 3 µM.

As to `CO/N=C(\C)c1ccc(Nc2cc(-c3ccccc3)nc3c(O)cccc23)cc1`, in assay [1], the GI50 was 15.5 µM and the TGI was found to be 32.7 µM.

As for `CC[C@H](CC#N)OC(=O)N[C@@H](C)c1cccc(NC(=O)Nc2ccc(-c3cnco3)c(OC)c2)c1`, in assay [1], the GI50 was 0.238 µM and the TGI came out at 34 µM.

Regarding `Clc1nc(Cl)c2ncn(Cc3ccc(COc4cccc(OCc5ccc(Cn6cnc7c(Cl)nc(Cl)nc76)cc5)c4)cc3)c2n1`, in assay [1], the GI50 was 25.6 µM and the TGI was over 100 µM.

As to `OCCCCCCOc1ccc(-c2cc(-c3ccccn3)nc(-c3ccccn3)c2)cc1`, the TGI in assay [1] is 9.21 µM; in assay [2], 1.48 µM; in assay [3], 0.978 µM; in assay [7] it was 4.97 µM; in assay [4], 1.25 µM; in assay [5], 10.9 µM. For the same compound, the TGI in assay [6] came to 5.32 µM.

Consider `C=C(C)C(=O)O[C@H]1[C@H]2[C@H](OC(=O)[C@H]2C)[C@H](O)[C@@H](C)[C@@H]2C=CC(=O)[C@]21C`, for which the TGI is 15.5 µM in assay [1] and 7.68 µM in assay [8].

For the compound `CC(=O)n1c2ccccc2c2nc3nc(Oc4ccc(C)cc4)c4ccccc4c3cc21`, the TGI in assay [2], in assay [3], in assay [7], in assay [4] and in assay [5] was over 100 µM in each case.

As to `CC12CCC(=O)C=C1CCC1C2C(O)CC2(C)C(c3csc(N)n3)CCC12` (stereo unspecified), the TGI in assay [1] and in assay [8] was over 100 µM throughout.

In the case of `CC(C)NC(=O)OCCS(=O)c1c(Cl)c(Cl)nn1C` (stereo unspecified), the TGI in assay [8] is over 100 µM.

Regarding `COc1cc(/C=C/C(=O)c2sc(Nc3ccccc3)nc2C)ccc1O`, the TGI in assay [2], in assay [3], in assay [4] and in assay [5] was over 100 µM in each case.

Take `CC(CNC(Cc1ccccc1)c1ccccc1)NC(Cc1ccccc1)c1ccccc1` (stereo unspecified): in assay [1], the GI50 was 2.01 µM and the TGI was 5.16 µM.

Take `Cn1ccnc1C(=O)/C=C/c1ccc(CC(=O)Nc2ccccc2)cc1`: in assay [1], the GI50 was 2.95 µM and the TGI came out at 7.54 µM.

Regarding `N#CC(C(=O)C(=O)NCCCNC(=O)C(=O)C(C#N)c1ccccc1)c1ccccc1` (stereo unspecified), the TGI in assay [2], in assay [3], in assay [7], in assay [4] and in assay [5] was over 100 µM in each case.

`N[C@H](C(=O)O)[C@H](Cl)CC(=O)O`: the TGI in assay [2], in assay [3], in assay [7], in assay [4], in assay [5] and in assay [6] was over 100 µM throughout.

In the case of `Fc1cccc(COc2ccc(Nc3ncnc4cc(-c5ccc[nH]5)sc34)cc2Cl)c1`, in assay [1], the GI50 is 0.977 µM and the TGI turned out to be 14.9 µM.

In the case of `Nc1nc2c(c(=O)[nH]1)CN(c1ccc(S(N)(=O)=O)cc1)CN2`, the TGI in assay [1] and in assay [8] was over 100 µM in each case.

In the case of `COc1cc(-c2cn(-c3ccc(Cl)cc3)c(C)c2C(=O)C(F)(F)F)cc(OC)c1OC`, in assay [1], the GI50 is 46.8 µM and the TGI is over 100 µM.

With `CC1OC2CC(=O)OC2C2=C1C(=O)c1c(O)c3c(c(O)c1C2=O)C1CC(O)C3(O)C(C)O1` (stereo unspecified), in assay [1], the GI50 was 1.1 µM and the TGI stood at 2.32 µM.

Take `COC(=O)CNC(=O)[C@@H](OC)[C@@H]1Cc2cc3cc(OC4CC(OC5CC(O)C(O)C(C)O5)C(O)C(C)O4)c(C)c(O)c3c(O)c2C(=O)[C@H]1OC1CC(OC2CC(OC3CC(C)(O)C(O)C(C)O3)C(O)C(C)O2)C(O)C(C)O1` (stereo partly specified): in assay [1], the GI50 is 0.114 µM and the TGI came to 1.1 µM.

As to `NNC(=O)CCC(=O)NC1C2CC3CC(C2)CC1C3` (stereo unspecified), the TGI in assay [2], in assay [3], in assay [7], in assay [4] and in assay [5] was over 100 µM each time.

As to `O=c1cc(-c2ccccc2)c2cc3c(=O)ccoc3cc2o1`, the TGI in assay [2], in assay [3], in assay [4] and in assay [6] was over 100 µM each time.

As for `CC(=O)OCC1OC(n2ccc(=O)[nH]c2=O)C(OC(C)=O)C1OC(C)=O` (stereo unspecified), in assay [1], the GI50 was over 100 µM and the TGI is over 100 µM.

`Cc1cc2c3ccccc3n(C)c2c2c1C(=O)C=CC2=O`: the TGI was found to be 46.4 µM in assay [1]; 13 µM in assay [2]; 29.1 µM in assay [3]; 8.98 µM in assay [7]; 33.4 µM in assay [4]; 25.5 µM in assay [8]. The figures for the TGI in assay [5] and in assay [6] were 49.1 µM and 31.3 µM, respectively.

For the compound `COc1cc([C@@H]2c3cc4c(cc3[C@@H](NC(=O)c3ccccc3)C3COC(=O)[C@@H]32)OCO4)cc(OC)c1O` (stereo partly specified), the TGI in assay [2] is 21.4 µM; in assay [3], 13.7 µM; in assay [7], over 100 µM; in assay [4] it was 24.7 µM; in assay [5], over 100 µM.

With `CN(C)c1ccc2cc(-c3ccccc3F)c(N)nc2c1`, in assay [1], the GI50 is 2.57 µM and the TGI came to 10.6 µM.
